Experimental data published in patent publication US8686155B2, “Aurora kinase modulators and method of use” (Amgen Inc., priority 2006, dated 2014).
Read-outs that look alike come from different tables or passages of the source.

System: phosphorylation of Histone H3 in HeLa cells
Assay: HeLa cell 1-hour phospho-histone assay
Type: cell-based
Details: Homo sapiens, % of cells pHH3 positive, read-out: inhibitory activity (EC50) in the phospho-histone H3 assay
Experimental: HeLa Cell 1-Hour Phospho-Histone Assay
The purpose of this assay is to test the inhibitory effect of Aurora compounds with respect to phosphorylation of Histone H3 in the cellular context. HeLa cells (9×10^4/well) are plated in black 96-well flat-bottom tissue culture plates and incubated for 40 hours prior to compound addition. Compounds are serially diluted in DMSO, followed by dilution into MEM containing 10 mM HEPES; 10 ul/well of diluted compounds are added to cells (0.5% DMSO final). Cells are incubated for 1 hour at 37° C. in 5% CO2. Cells are then fixed with 3.7% formaldehyde for 10 minutes, washed with wash buffer (1% goat serum and 0.1% Tween 20 in PBS), then permeabilized with 0.5% Triton X in PBS for 15 minutes. After washing with wash buffer, cells are incubated with primary antibody (Upstate #06-507 anti-phospho-histone (Ser 10) antibody (pHH3) for 1 hour at 10 ug/ml. After 2 washes with wash buffer, cells are incubated with secondary antibody (Molecular Probes #A11034 goat anti-rabbit Alexa-488 for 1 hour at 1 ug/ml+Hoechst 33342 nuclear dye at 1 ug/ml (Molecular Probes). Cells are washed 2 times with wash buffer, and buffer replaced with PBS. Plates are scanned on the Cellomics Array Scan (6 fields, ˜2000 cells/well) and % of cells that are pHH3 positive were calculated using the Cellomics algorithm.

Row | SMILES | EC50 (unit inferred) | EC50
1 | CNc1nccc(-c2cccnc2Oc2ccc(Nc3nnc(-c4ccccc4)c4c3C3CCC4CC3)cc2)n1 [Example 107, N-(4-((3-(2-(methylamino)-4-pyrimidinyl)-2-pyridinyl)oxy)phenyl)-6-phenyl-4,5-diazatricyclo [6.2.2.0~2,7~]dodeca-2,4,6-trien-3-amine] | < 1 µM | –
2 | CNc1nccc(-c2cccnc2Oc2ccc(Nc3nnc(-c4ccccc4)c4c3CCCC4)cc2)n1 [Example 123, N-(4-((3-(2-(methylamino)-4-pyrimidinyl)-2-pyridinyl)oxy)phenyl)-4-phenyl-5,6,7,8-tetrahydro-1-phthalazinamine] | < 1 µM | < 10 µM
